Data taken from US5952307A, “Basic α-aminoalkylphosphonate derivatives” (priority 1997, dated 1999).
Like-named read-outs stand apart in the source and are kept apart here.

Columns and labels:
Assay type in all cases: biochemical
human granzyme A = target: T1, human granzyme A (Homo sapiens, UniProt P12544); assay: Inactivation rate of human granzyme A, incubation method; conditions: Table I; 0.1M Hepes, 0.01M CaCl2 pH 7.5, 25° C., 7.6% DMSO, substrate Z--Arg--SBzl
T1 sequence (P12544 29-262): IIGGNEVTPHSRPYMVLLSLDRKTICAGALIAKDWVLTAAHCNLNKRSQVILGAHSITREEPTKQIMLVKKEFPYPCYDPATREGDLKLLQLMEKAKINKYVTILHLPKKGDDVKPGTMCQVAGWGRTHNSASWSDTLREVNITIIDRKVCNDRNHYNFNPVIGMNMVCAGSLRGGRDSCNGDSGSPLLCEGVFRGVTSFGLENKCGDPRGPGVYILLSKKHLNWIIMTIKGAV
How it was run: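 Inhibitor in DMSO added to enzyme (0.01-2.3 μM) in 0.1 M HEPES, 0.01 M CaCl2, pH 7.5, 25° C (DMSO 7.6% for granzyme A, 7.1% for granzyme K); residual activity on Z-Arg-SBzl with DTNB read at intervals. Kobs from ln vt/vo vs time plots.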

rat granzyme K = target: T2, rat granzyme K (Rattus norvegicus, UniProt P49864); assay: Inactivation rate of rat granzyme K, incubation method; conditions: Table I; 0.1M Hepes, 0.01M CaCl2 pH 7.5, 25° C., 7.1% DMSO, substrate Z--Arg--SBzl; NI = no inhibition after 25 min of incubation
T2 sequence (P49864 26-258): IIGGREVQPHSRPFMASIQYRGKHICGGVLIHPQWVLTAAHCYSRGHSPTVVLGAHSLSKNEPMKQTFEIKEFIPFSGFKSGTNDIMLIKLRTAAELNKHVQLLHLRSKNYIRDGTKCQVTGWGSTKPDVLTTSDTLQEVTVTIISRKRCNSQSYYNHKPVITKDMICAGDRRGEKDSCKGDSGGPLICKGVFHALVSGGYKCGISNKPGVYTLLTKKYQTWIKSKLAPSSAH
Experimental: (§1) Inactivation rates of serine proteases by aryl diesters of peptidyl derivatives of α-aminoalkylphosphonates were measured by the incubation method. An aliquot of inhibitor (25 or 50 μl) in Me2 SO was added to a buffered enzyme solution (0.01-2.3 μM) to initiate the inactivation. Aliquots (50 μl) were withdrawn at various intervals and the residual enzymatic activity was measured. Me2 SO concentration in the reaction mixture was 8-12% (v/v). A 0.1 M HEPES, 0.01 M CaCl2, pH 7.5 buffer was utilized for trypsin and trypsin-like enzymes. A 0.1 M HEPES, 0.5 M NaCl, pH 7.5, was utilized for the other serine proteases. Peptide thioesters or peptide nitroanilides with the appropriate sequences were used as substrates for various serine proteases. All peptide thioesters hydrolysis rates were measured with the assay mixture containing 4,4'-dithiodipyridine {ε324 =19800 M^-1 cm^-1; Grasetti & Murray, Arch. Biochem. Biophys. 1967, 119, 41-48}. Peptide 4-nitroanilide hydrolysis was measured at 410 nm {ε410 =8800 M^-1 cm^-1; Erlanger et al., Arch. Biochem. Biophys. 1961, 95, 271-278}. First order inactivation rate constants (Kobs) were obtained from plots of In vt /vo vs time, and the correlation coefficients were greater then 0.98.
(§2) ^a Inhibition constants were measured in 0.1M Hepes, 0.01M CaCl2
(§3) pH 7.5 for trypsin, granzymes A, and K, and in 0.1M Hepes, 10% glycerol,
(§4) 10 mM heparin, pH 7.5 for mast cell tryptase, and at 25° C. The
(§5) reaction mixtures contained 2% DMSO for trypsin, 7.6% for granzyme A, and
(§6) 7.1% for granzyme K and tryptase. The substrate was Z--Arg--SBzl for
(§7) granzymes and trypsin, and Z--Arg--SBzl or Z--Lys--SBzl for tryptase in
(§8) the presence of DTNB. The inhibitor # concentration ranged from 0.001 to
(§9) ^b NI, no inhibition after 25 min of incubation with enzyme.

rat granzyme A = assay: Inactivation rate of rat granzyme A, incubation method; conditions: Table I; 0.1M Hepes, 0.01M CaCl2 pH 7.5, 25° C., 7.6% DMSO, substrate Z--Arg--SBzl
Experimental: as §1, §2, §3, §4, §5, §6, §7, §8, §9

human thrombin = target: T3, human thrombin (Homo sapiens, UniProt P00734); conditions: 25° C., NI = no inhibition
T3 construct: bovine trypsin, human thrombin
How it was run: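 Irreversible inactivation followed by incubation method at 25 °C: 0.07 μM thrombin with 0.25–42 μM inhibitor in 80 mM Hepes pH 7.5, 428 mM NaCl, 8% DMSO. Residual activity of withdrawn aliquots measured with thioester or 4-nitroanilide substrates; kobs from pseudo-first-order fits.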

bovine trypsin [1] = target: T4, bovine trypsin (Bos taurus, UniProt P00760); assay: Inactivation rate of bovine trypsin, incubation method; conditions: Table III; enzyme 0.06-0.5 μM, inhibitor 0.25-42 μM, 9% DMSO, 25° C.; NI = no inhibition
T4 sequence (P00760 24-246): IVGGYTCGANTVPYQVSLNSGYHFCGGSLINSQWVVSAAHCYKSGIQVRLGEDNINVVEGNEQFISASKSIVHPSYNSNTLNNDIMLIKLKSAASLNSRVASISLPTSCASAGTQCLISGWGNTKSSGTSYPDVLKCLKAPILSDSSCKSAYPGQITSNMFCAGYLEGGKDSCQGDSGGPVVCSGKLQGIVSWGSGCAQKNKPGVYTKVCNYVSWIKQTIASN

mast cell tryptase = mast cell tryptase (Homo sapiens, UniProt Q15661); assay: Inactivation rate of mast cell tryptase, incubation method; conditions: for kobs /[I] mast cell tryptase: 25° C., NI = no inhibition; for kobsd /[I] mast cell tryptase: Table I, 0.1M Hepes, 10% glycerol, 10 mM heparin, pH 7.5, 25° C., 7.1% DMSO, NI = no inhibition after 25 min of incubation
How it was run: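 Incubation method at 25 °C: 0.07 μM tryptase with 20–66 μM inhibitor in Hepes pH 7.5 containing heparin, glycerol and DMSO. Aliquots were withdrawn at intervals for residual activity on Z-Arg-SBzl or Z-Lys-SBzl with DTNB. Pseudo-first-order kobs came from ln(vt/v0) versus time.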

bovine trypsin [2] = target: T4, bovine trypsin; assay: Inactivation rate of bovine trypsin, incubation method; conditions: for kobsd /[I] bovine trypsin: Table I, 0.1M Hepes, 0.01M CaCl2 pH 7.5, 25° C., 2% DMSO, substrate Z--Arg--SBzl, NI = no inhibition after 25 min; for kobs /[I] bovine trypsin: Table II, 0.13 μM trypsin, 0.25-42 μM inhibitor, 80 mM Hepes pH 7.5, 1 mM CaCl2, 8% DMSO, 25° C., NI = no inhibition
How it was run: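 Incubation method: trypsin pre-incubated with inhibitor (0.25-42 μM) at 25° C in 80 mM Hepes, 1 mM CaCl2, pH 7.5, 8% DMSO; aliquots withdrawn over time for residual activity on Z-Arg-SBzl thioester with DTNB or 4,4'-dithiodipyridine. Pseudo-first-order kobs from ln vt/vo versus time.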

[3] = Table II, 0.07 μM thrombin, 0.25-42 μM inhibitor, 80 mM Hepes pH 7.5, 428 mM NaCl, 8% DMSO
[4] = Table III, enzyme 0.06-0.5 μM, inhibitor 0.25-42 μM, 9% DMSO
[5] = Table II, 0.07 μM tryptase, 20-66 μM inhibitor, Hepes pH 7.5, heparin, 9% glycerol, 8% DMSO

Chain of mast cell tryptase (Q15661 31-275): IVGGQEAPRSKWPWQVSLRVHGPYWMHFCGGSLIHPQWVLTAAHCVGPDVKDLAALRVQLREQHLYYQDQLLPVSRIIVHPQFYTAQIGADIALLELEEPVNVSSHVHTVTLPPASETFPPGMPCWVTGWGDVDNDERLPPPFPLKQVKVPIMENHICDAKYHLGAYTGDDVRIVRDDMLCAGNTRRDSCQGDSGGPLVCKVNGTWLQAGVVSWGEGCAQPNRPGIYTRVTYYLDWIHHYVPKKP

Row | SMILES | kobsd /[I] human granzyme A (human granzyme A) [M⁻¹ s⁻¹] | kobsd /[I] rat granzyme K (rat granzyme K) [M⁻¹ s⁻¹] | kobsd /[I] rat granzyme A (rat granzyme A) [M⁻¹ s⁻¹] | kobs /[I] human thrombin (human thrombin; [3]) [M⁻¹ s⁻¹] | kobs /[I] bovine trypsin (bovine trypsin [1]) [M⁻¹ s⁻¹] | kobs /[I] mast cell tryptase (mast cell tryptase; [4]) [M⁻¹ s⁻¹] | kobs /[I] human thrombin (human thrombin; [4]) [M⁻¹ s⁻¹] | kobsd /[I] bovine trypsin (bovine trypsin [2]) [M⁻¹ s⁻¹] | kobs /[I] bovine trypsin (bovine trypsin [2]) | kobsd /[I] mast cell tryptase (mast cell tryptase) [M⁻¹ s⁻¹] | kobs /[I] mast cell tryptase (mast cell tryptase; [5]) [M⁻¹ s⁻¹]
1 | Cl.N=C(N)c1ccc(C(NC(=O)/C=C/c2cccnc2)P(=O)(Oc2ccccc2)Oc2ccccc2)cc1 (stereo not drawn) [Diphenyl N-(trans-3-(3-Pyridyl)acryloyl)amino(4-amidinophenyl)methanephosphonate Hydrochloride] | 5 | 3 | 1 | 2 |  |  |  |  |  |  | 
2 | CC(C)C(NC(=O)CCC(=O)O)C(=O)N1CCCC1C(=O)NC(CCCCN)P(=O)(Oc1ccccc1)Oc1ccccc1 (mixture of isomers) [Suc--Val--Pro--Lys^P (OPh)2] |  |  |  |  | 416 ± 28 | 0.6 | 3.4 ± 0.4 |  |  |  | 
3 | CC(NC(=O)OCc1ccccc1)C(=O)NC(c1ccc(C(=N)N)cc1)P(=O)(Oc1ccccc1)Oc1ccccc1 (mixture of isomers) [Cbz--Ala-(4-AmPhGly)^P (OPh)2] | 1670 ± 11 |  | 1270 ± 85 | 750 ± 18 |  |  |  | 1850 ± 85 | 1,850 ± 85 M^-1 s^-1 | 0.8 | 0.8
4 | CC(C)(C)OC(=O)NC(CC(N)=O)C(=O)NC(CCCCN)P(=O)(Oc1ccccc1)Oc1ccccc1 (mixture of isomers) [Boc--Asn--Lys^P (OPh)2] |  |  |  |  | 3 |  |  |  |  |  | 
5 | CC(C)C(NC(=O)CCC(=O)O)C(=O)N1CCCC1C(=O)NC(CCCCCN)P(=O)(Oc1ccccc1)Oc1ccccc1 (mixture of isomers) [Suc--Val--Pro-HomoLys^P (OPh)2] |  |  |  |  | 51 ± 10 | 4.1 ± 0.4 | 1.6 ± 0.3 |  |  |  | 
6 | N=C(N)c1ccc(C(NS(=O)(=O)c2cccc3ccccc23)P(=O)(Oc2ccccc2)Oc2ccccc2)cc1 (racemic) [1-NpSO2-(4-AmPhGly)^P (OPh)2] | 330 ± 26 |  | 30 ± 1 | 24 ± 3 |  |  |  | 170 ± 34 | 170 ± 34 M⁻¹ s⁻¹ | 10 | 10 ± 1
7 | C[C@H](NC(=O)CCC(=O)O)C(=O)N[C@@H](C)C(=O)NC(c1ccc(C(=N)N)cc1)P(=O)(Oc1ccccc1)Oc1ccccc1 (stereo partly drawn) [Suc--Ala--Ala-(4-AmPhGly)^P (OPh)2] | 260 ± 15 | 0.3 ± 0.01 |  | 2 |  |  |  | 640 ± 36 | 640 ± 36 M⁻¹ s⁻¹ | 0.7 | 0.7
8 | N=C(N)c1ccc(C(NC(=O)CCC(=O)O)P(=O)(Oc2ccccc2)Oc2ccccc2)cc1 (stereo not drawn) [Suc-(4-AmPhGly)^P (OPh)2] | 857 | 0.3 ± 0.07 |  | 2 |  |  |  | 45 ± 3 | 45 ± 3 M⁻¹ s⁻¹ | 0.2 | 0.2
